In patent US9593149B2, “Amylin and calcitonin receptor agonist” (Novo Nordisk A/S, priority 2014, dated 2017) one finds IC50 and EC50 data, which are given here for 4 molecules.

Each structure is given as a SMILES string. Numbered stars: 1 amine (or outer) side, 2 acyl side, 3 side chain; on linkers, the order of the positions; unused ones are H or OH. Side chains are listed from the residue outwards. Peptide text beside a SMILES is read from it. * marks the point of attachment. C20 diacid = O=C(O)CCCCCCCCCCCCCCCCCCC(=O)*; C18 diacid = O=C(O)CCCCCCCCCCCCCCCCC(=O)*; γGlu = O=C(O)[C@H](CCC(=O)[*:2])N[*:1]

Assay [1] has as its target T1, human amylin receptor (human calcitonin receptor + human RAMP3), BHK tk'ts 13 cells (Homo sapiens, UniProt O60896+P30988).
T1 construct: expressed in transfected cells; host or cells: BHK tk'ts 13
In words: Assay (Va) binding to the human amylin receptor (whole cell). The settings on record: read-out: hAmylin-R binding IC50. As to the method:
The day before the assay the cells were Seeded into Poly-D-Lysin coated 384W Opaque White, BD BioCoat plates (10000 cells/well) and Incubated overnight at 37° C., 5% CO2, 95% humidity.

Assay [2] addresses T2, rat amylin receptor (rat calcitonin receptor + rat RAMP 3) (Rattus norvegicus, UniProt P32214+Q9JJ73).
T2 construct: expressed in transfected cells; host or cells: BHK tk'ts 13 (transient, FuGENE 6)
T2 sequence (P32214 25-479 isoform P32214-2 limits assumed): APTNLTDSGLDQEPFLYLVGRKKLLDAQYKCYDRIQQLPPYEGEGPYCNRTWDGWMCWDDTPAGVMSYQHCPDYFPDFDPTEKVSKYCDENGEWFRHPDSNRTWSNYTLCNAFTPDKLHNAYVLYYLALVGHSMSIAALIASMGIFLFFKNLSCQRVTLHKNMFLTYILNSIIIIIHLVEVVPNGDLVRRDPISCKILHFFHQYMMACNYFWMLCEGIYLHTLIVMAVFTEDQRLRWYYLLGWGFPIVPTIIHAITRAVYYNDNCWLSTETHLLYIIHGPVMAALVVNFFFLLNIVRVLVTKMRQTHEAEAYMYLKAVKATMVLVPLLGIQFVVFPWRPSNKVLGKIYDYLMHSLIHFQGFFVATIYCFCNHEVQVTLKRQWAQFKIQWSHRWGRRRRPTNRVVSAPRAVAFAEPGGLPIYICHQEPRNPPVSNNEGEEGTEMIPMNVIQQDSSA
T2 sequence (Q9JJ73 23-147 partner): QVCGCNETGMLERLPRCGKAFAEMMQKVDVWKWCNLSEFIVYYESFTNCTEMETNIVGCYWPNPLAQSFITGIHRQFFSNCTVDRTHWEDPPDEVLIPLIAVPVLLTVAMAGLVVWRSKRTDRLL
Briefly: Assay (VI) binding to the rat amylin receptor (membrane). The settings on record: membranes; read-out: rAmylin-R binding IC50. As to the method:
The assay was performed as described above (Assay (V)—Determination of binding to the human amylin receptor) with the exception that we used membranes prepared from BHK tk'ts 13 cells that were transiently transfected with the rat calcitonin receptor rat RAMP 3 at an equimolar ratio […]. The BHK tk'ts 13 cells were transiently transfected with rat calcitonin receptor using FuGENE® 6 (Roche), according to the manufacturer's recommendations. Cells were grown in DMEM with 10% FBS and 1% Pen/Strep. Approximately 48 hours after transfection, the cells were harvested and membranes were prepared.

The target of assay [3] is T3, human calcitonin (a) receptor, BHK570 cells (Homo sapiens, UniProt P30988).
T3 construct: host or cells: BHK570
T3 sequence (P30988 25-474): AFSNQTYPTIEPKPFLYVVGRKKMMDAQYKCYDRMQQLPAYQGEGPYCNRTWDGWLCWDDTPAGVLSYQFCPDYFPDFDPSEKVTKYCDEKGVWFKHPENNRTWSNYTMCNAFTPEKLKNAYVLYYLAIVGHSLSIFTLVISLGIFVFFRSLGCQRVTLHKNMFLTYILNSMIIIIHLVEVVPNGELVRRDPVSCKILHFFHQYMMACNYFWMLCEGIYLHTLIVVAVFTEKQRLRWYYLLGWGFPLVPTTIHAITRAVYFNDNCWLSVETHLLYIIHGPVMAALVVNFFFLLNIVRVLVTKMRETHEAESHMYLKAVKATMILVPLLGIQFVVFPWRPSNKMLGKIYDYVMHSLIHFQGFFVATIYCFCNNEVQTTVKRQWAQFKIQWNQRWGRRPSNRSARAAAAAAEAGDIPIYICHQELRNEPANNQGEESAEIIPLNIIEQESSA
Briefly: Assay (II)b functional CRE-luciferase assay without albumin, human calcitonin receptor. Format: cell-based. The settings on record: Tested without HSA; read-out: hCTR funct. EC50. In outline:
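BHK570 cells stably expressing human calcitonin receptor with CRE-luciferase reporter, plus RAMP-3 for the amylin 3(a) line. Cells stimulated 3 hours at 37 °C in albumin-free assay medium (0.1% ovalbumin, 10 mM Hepes pH 7.4); cAMP-driven luciferase read by luminescence.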

T1 sequence (O60896 24-148, one chain of several): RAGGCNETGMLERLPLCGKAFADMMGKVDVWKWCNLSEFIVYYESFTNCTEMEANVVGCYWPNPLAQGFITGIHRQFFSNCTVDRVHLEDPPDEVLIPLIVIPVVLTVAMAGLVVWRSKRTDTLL

Regarding `CC(C)C[C@H](NC(=O)[C@H](CCCNC(=N)N)NC(=O)CNC(=O)[C@H](CC(C)C)NC(=O)[C@@H](NC(=O)[C@H](C)NC(=O)[C@@H](NC(=O)[C@H](CO)NC(=O)[C@H](CC(C)C)NC(=O)[C@H](CCC(=O)O)NC(=O)[C@H](CO)NC(=O)[C@H](C)NC(=O)CC[C@H](NC(=O)CCCCCCCCCCCCCCCCCCC(=O)O)C(=O)O)[C@@H](C)O)C(C)C)C(=O)N[C@@H](CO)C(=O)N[C@@H](CCC(N)=O)C(=O)N[C@@H](CCC(=O)O)C(=O)N[C@@H](CC(C)C)C(=O)N[C@@H](Cc1c[nH]cn1)C(=O)N[C@@H](CCC(=O)O)C(=O)N[C@@H](CC(C)C)C(=O)N[C@@H](CCC(N)=O)C(=O)N[C@H](C(=O)N[C@@H](Cc1ccc(O)cc1)C(=O)N1CCC[C@H]1C(=O)N[C@@H](CCCNC(=N)N)C(=O)N[C@H](C(=O)N[C@@H](CCC(=O)O)C(=O)N[C@H](C(=O)NCC(=O)N[C@@H](CO)C(=O)NCC(=O)N[C@H](C(=O)N[C@@H](Cc1ccc(O)cc1)C(N)=O)[C@@H](C)O)[C@@H](C)O)[C@@H](C)O)[C@@H](C)O` [compound 114, [N-terminal(C20 diacid-gGlu), des1, 9V, 15Q, 21Q, 23Y, 30S, 31G, 32T, 33Y]mimylin], the IC50 in assay [1] was found to be 0.278 nM; in assay [2], 0.146 nM.
For `CC(C)C[C@H](NC(=O)[C@H](C)NC(=O)[C@H](C)NC(=O)[C@@H](NC(=O)[C@H](CO)NC(=O)[C@H](CC(C)C)NC(=O)[C@H](CCC(=O)O)NC(=O)[C@H](CO)NC(=O)[C@H](C)NC(=O)[C@H](C)NC(=O)CC[C@H](NC(=O)CCCCCCCCCCCCCCCCCCC(=O)O)C(=O)O)[C@@H](C)O)C(=O)NCC(=O)N[C@@H](CCCNC(=N)N)C(=O)N[C@@H](CC(C)C)C(=O)N[C@@H](CO)C(=O)N[C@@H](C)C(=O)N[C@@H](CCC(=O)O)C(=O)N[C@@H](CC(C)C)C(=O)N[C@@H](Cc1c[nH]cn1)C(=O)N[C@@H](CCC(=O)O)C(=O)N[C@@H](CC(C)C)C(=O)N[C@@H](C)C(=O)N[C@H](C(=O)N[C@@H](Cc1ccc(O)cc1)C(=O)N1CCC[C@H]1C(=O)N[C@@H](CCCNC(=N)N)C(=O)N[C@H](C(=O)N[C@@H](CCC(=O)O)C(=O)N[C@H](C(=O)NCC(=O)N[C@@H](CO)C(=O)NCC(=O)N[C@@H](CO)C(=O)N1CCC[C@H]1C(N)=O)[C@@H](C)O)[C@@H](C)O)[C@@H](C)O` [compound 57, [N-terminal(C20 diacid-gGlu), 1A, 23Y, 30S, 31G]mimylin] ({C20 diacid-γGlu}-AASELSTAALGRLSAELHELATYPRTETGSGSP-NH2), the IC50 in assay [1] was determined as 1.23 nM; in assay [2] it was 0.025 nM. Also, in assay [3], the EC50 is 0.022 nM.
As for `CC(=O)N[C@@H](C)C(=O)N[C@@H](CO)C(=O)N[C@@H](CCCCNC(=O)CC[C@H](NC(=O)CCCCCCCCCCCCCCCCCCC(=O)O)C(=O)O)C(=O)N[C@@H](CC(C)C)C(=O)N[C@@H](CO)C(=O)N[C@H](C(=O)N[C@@H](C)C(=O)N[C@@H](C)C(=O)N[C@@H](CC(C)C)C(=O)NCC(=O)N[C@@H](CCCNC(=N)N)C(=O)N[C@@H](CC(C)C)C(=O)N[C@@H](CO)C(=O)N[C@@H](C)C(=O)N[C@@H](CCC(=O)O)C(=O)N[C@@H](CC(C)C)C(=O)N[C@@H](Cc1c[nH]cn1)C(=O)N[C@@H](CCC(=O)O)C(=O)N[C@@H](CC(C)C)C(=O)N[C@@H](C)C(=O)N[C@H](C(=O)N[C@@H](CC(C)C)C(=O)N1CCC[C@H]1C(=O)N[C@@H](CCCNC(=N)N)C(=O)N[C@H](C(=O)N[C@@H](CCC(=O)O)C(=O)N[C@H](C(=O)NCC(=O)N[C@@H](CO)C(=O)NCC(=O)N[C@@H](CO)C(=O)N1CCC[C@H]1C(N)=O)[C@@H](C)O)[C@@H](C)O)[C@@H](C)O)[C@@H](C)O` [compound 68, [N-terminal(acetyl), des1, 4K(C20 diacid-gGlu), 30S, 31G]mimylin] (Ac-ASK([γGlu-C20 diacid])LSTAALGRLSAELHELATLPRTETGSGSP-NH2), in assay [2], the IC50 turned out to be 0.046 nM. In addition, the EC50 in assay [3] amounted to 0.027 nM.
Consider `CC(C)C[C@H](NC(=O)[C@H](CCC(=O)O)NC(=O)[C@H](C)NC(=O)[C@@H](NC(=O)[C@H](CC(C)C)NC(=O)[C@H](CCCNC(=N)N)NC(=O)CNC(=O)[C@H](CC(C)C)NC(=O)[C@@H](NC(=O)[C@H](C)NC(=O)[C@@H](NC(=O)[C@@H](NC(=O)[C@H](CC(C)C)NC(=O)[C@H](CCC(=O)O)NC(=O)[C@H](CO)NC(=O)[C@H](C)NC(=O)CC[C@H](NC(=O)CCCCCCCCCCCCCCCCC(=O)O)C(=O)O)[C@@H](C)O)[C@@H](C)O)C(C)C)[C@@H](C)O)C(=O)N[C@@H](Cc1c[nH]cn1)C(=O)N[C@@H](CCC(=O)O)C(=O)N[C@@H](CC(C)C)C(=O)N[C@@H](CCC(=O)O)C(=O)N[C@H](C(=O)N[C@@H](CC(C)C)C(=O)N1CCC[C@H]1C(=O)N[C@@H](CCCNC(=N)N)C(=O)N[C@H](C(=O)N[C@@H](CCC(=O)O)C(=O)N[C@H](C(=O)NCC(=O)N[C@H](C(=O)NCC(=O)N[C@H](C(=O)N1CCC[C@H]1C(N)=O)[C@@H](C)O)[C@@H](C)O)[C@@H](C)O)[C@@H](C)O)[C@@H](C)O` [compound 105, [N-terminal(C18 diacid-gGlu), des1, 6T, 9V, 14T, 21E, 30T, 31G, 32T]mimylin] ({C18 diacid-γGlu}-ASELTTAVLGRLTAELHELETLPRTETGTGTP-NH2), for which the IC50 turned out to be 22.9 nM in assay [1] and 0.162 nM in assay [2]. Moreover, the EC50 in assay [3] was 0.045 nM.
